Target: T1, Tec kinase mediated tyrosine phosphorylation of FGF2 (GST-NΔ173 Tec) (Homo sapiens, UniProt P42680)
T1 construct: made in house; host or cells: Tec: SF9 insect cells (baculovirus); FGF2: E. coli
Experiment: In vitro Tec kinase mediated tyrosine phosphorylation of FGF2
Type: biochemical
Conditions: 50 μM compound in 1% DMSO; FIG. 6C
Experimental: FGF2 tyrosine phosphorylation and Tec kinase auto-phosphorylation were reconstituted with purified components based on a Western analysis using anti-phosphotyrosine antibodies directed against an FGF2-derived phosphopeptide. In vitro phosphorylation experiments were conducted in the absence (1% DMSO mock control) and presence of the small molecule inhibitors (#6, #14, #21; 50 μM in 1% DMSO) and control compounds (#18, #19; 50 μM in 1% DMSO) introduced in FIGS. 4 and 5. Fluorescent secondary antibodies were used to detect antigens employing the LI-COR Odyssey imaging platform. M=PageRuler Prestained Protein Ladder. For details, see Experimental Procedures.
(C) Quantification and statistical analysis of 5 independent experiments using the LI-COR Odyssey imaging platform. Following background normalization, the average of FGF2 tyrosine phosphorylation under mock conditions was defined as 100% activity. Standard deviations are shown. […]
FGF2 and STAP1 tyrosine phosphorylation as well as Tec kinase auto-phosphorylation were analyzed as described in the legend to FIG. 6 and in Experimental Procedures. […] Fluorescent secondary antibodies were used to detect and quantify antigens using the LI-COR Odyssey imaging platform. In panels D, E and F, following normalization based upon background signals detected in the absence of Tec kinase or ATP, the average of the signals detected under mock conditions was defined as 100% activity. […]
A Tec kinase in vitro phosphorylation assay was established to test the inhibitory potential and selectivity of the small molecule inhibitors reported in this study (FIGS. 6 and 7). […] Phosphorylation levels of GST-NΔ173 Tec (auto-phosphorylation), FGF2 and STAP1 were quantified by a Western analysis using polyclonal anti-phosphotyrosine antibodies raised against a FGF2-derived synthetic peptide containing a phosphorylated tyrosine residue (ANRpYLAMKED; SEQ ID NO: 1). […] Phosphorylation levels of STAP1 were monitored using a monoclonal anti-phosphotyrosine antibody (clone 4G10®, #05-321, Merck Millipore). […]

T1 sequence (P42680 174-631, stated change not applied): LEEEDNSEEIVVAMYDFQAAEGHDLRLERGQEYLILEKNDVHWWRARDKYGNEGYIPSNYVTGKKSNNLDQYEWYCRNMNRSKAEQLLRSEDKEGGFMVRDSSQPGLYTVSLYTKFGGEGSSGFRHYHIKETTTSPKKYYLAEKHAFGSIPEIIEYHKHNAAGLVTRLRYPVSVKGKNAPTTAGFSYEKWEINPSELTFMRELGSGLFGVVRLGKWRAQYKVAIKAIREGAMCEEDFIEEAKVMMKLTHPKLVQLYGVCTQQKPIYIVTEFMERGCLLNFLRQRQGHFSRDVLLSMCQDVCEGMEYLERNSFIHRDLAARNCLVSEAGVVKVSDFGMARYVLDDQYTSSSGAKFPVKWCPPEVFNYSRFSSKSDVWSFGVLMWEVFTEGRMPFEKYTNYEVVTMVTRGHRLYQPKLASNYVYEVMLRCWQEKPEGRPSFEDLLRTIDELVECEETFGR

| SMILES | inhibition at 50 µM | inhibition of FGF2 tyrosine phosphorylation |
| --- | --- | --- |
| COC(=O)c1c(C)[nH]c(C(=O)OCc2cc(=O)n3c(C)cccc3n2)c1C [compound #6] | ~75% | – |
| CC(=O)c1c(C)[nH]c(C(=O)OCc2cc(=O)n3cc(Br)ccc3n2)c1C [compound #14] | – | almost quantitative inhibition |
| CC(=O)c1c(C)[nH]c(C(=O)CSc2nc3cc(Cl)cnc3[nH]2)c1C [compound #21] | – | almost quantitative inhibition |

Reference: US10842793B2, “Inhibitors of the unconventional secretion of fibroblast growth factor 2 (FGF2) by tumor cells and uses thereof” (Universität Heidelberg, priority 2016, dated 2020)
